Reference: PMC8433497, “DNA-encoded chemistry technology yields expedient access to SARS-CoV-2 M^pro inhibitors” (Proceedings of the National Academy of Sciences of the …, 2021)
“Also recorded” adds a separate entry of the source. Like-named read-outs stand apart in the source and are kept apart here.

Columns and labels:
SARS-CoV-2 M^pro = SARS-CoV-2 M^pro (Severe acute respiratory syndrome coronavirus 2, UniProt P0DTD1); experiment: M^pro (His tag removed) enzyme inhibition assay, fluorescent peptide reporter; assay type: biochemical; details: Table S1, 25 nM enzyme, 15 µM fluorescent peptide, Morrison equation, SE from triplicates
SARS-CoV-2 M^pro-His6 = SARS-CoV-2 M^pro-His6 (Severe acute respiratory syndrome coronavirus 2, UniProt P0DTD1); experiment: M^pro-His6 enzyme inhibition assay, fluorescent peptide reporter; assay type: biochemical; details: for M^pro inhibitory activity (in words): analogs compared with CDD-1713
[1] = Metabolic stability in human liver microsomes; assay type: in vitro ADME; details: for half-life at 2 μM: 0.5 mg protein/ml, 2.0 uM compound, 1.0 mM NADPH, read-out: HLM t1/2
Description: (§1) The samples were collected at specific time points, 0, 30, and 60 min, in duplicate. The reactions were terminated by adding an equivalent volume of ice-cold methanol and vortexed. […] Three microliters […] of the supernatant was analyzed by UHPLC-Q Exactive Orbitrap MS (Thermo Fisher Scientific) equipped with 50-mm × 4.6-mm column (XDB C-18; Agilent Technologies). The column temperature was maintained at 40 °C. The flow rate was at 0.3 mL/min with a 30% mobile phase (acetonitrile containing 0.1% formic acid). Q Exactive MS was operated in positive mode with electrospray ionization. Ultrapure nitrogen was applied as the sheath (45 arbitrary units), auxiliary (10 arbitrary units), sweep (1.0 arbitrary unit), and the collision gas. […] Mass Spectrometry (MS) data were acquired from 80 to 1,200 Da in profile mode.

[2] = Metabolic stability in mouse liver microsomes; assay type: in vitro ADME; details: for half-life at 2 μM: 0.5 mg protein/ml, 2.0 uM compound, 1.0 mM NADPH, read-out: MLM t1/2
Description: as §1

[3] = system: SARS-CoV-2 main protease (M^pro); experiment: Protein thermal shift stability assay (thermofluor); assay type: binding; details: 1.5 μM protease, various compound concentrations, SYPRO Orange
Description: The dye SYPRO Orange (Thermo Fisher Scientific) was used to perform the protein thermal shift assay. The assay was set up on a 384-well Roche plate where the SARS-CoV-2 main protease at a concentration of 1.5 μM was incubated with the test compound at various concentrations and SYPRO Orange dye at 5× in a 10 μL reaction. The melting curve experiment and data analysis were run on a Roche Lightcycler 480 real-time PCR instrument.

HepG2 cells [4] = experiment: HepG2 cytotoxicity assay (XTT); assay type: cell-based; details: 24 h; for cytotoxicity in HepG2 cells (in words): 100 μM
Description: (§2) The HepG2 cells maintained in DMEM (containing 1 g/L glucose, 10% fetal bovine serum [FBS], and 1% penicillin/streptomycin) were seeded in a 12-well plate (a final density of 5 × 10^5 per well) for cell uptake assay and 96-well plate for cytotoxicity assay (a final density of 5 × 10^4 per well). The plate was incubated at 37 °C for 24 h.
(§3) The cells in 96-well plate were treated by CDD-1713 or CDD-1976 at the final concentrations of 0, 10, 20, 50, or 100 μM (n = 3 replicates per concentration level per drug). After 24-h incubation at 37 °C, the medium in the plate was decanted and 100 μL of Dulbecco’s modified Eagle’s medium (DMEM) (without phenol red) was added into each well. The cell variability was measured using XTT method. The absorbance at 475 nm was read with a Tecan M1000 pro machine, with a reference wavelength of 660 nm. The reading was normalized by vehicle with final 0.5% dimethyl sulfoxide (DMSO) for each drug.

[5] = HepG2 cytotoxicity assay (XTT); assay type: cell-based; details: human, 100 µM group, XTT, normalized to DMSO, read-out: HepG2 cell viability
Description: as §2, §3

[6] = system: SARS-CoV-2 (USA_WA1/2020 isolate); experiment: RTCA assay for in vitro inhibition of SARS-CoV-2 replication in VERO E6 cells; assay type: cell-based; details: live SARS-CoV-2, 75 h; for IC50, SARS-CoV-2 induced cell death (normalized cell index, RTCA): duplicates
[7] = Plasma stability assay, mouse plasma; assay type: in vitro ADME; details: 10 µM, 37 °C, after 2-h incubation
Description: (§4) Compound CDD-1713 and CDD-1976 were incubated in human and mouse plasma, respectively, at a concentration of 10 µM in duplicate (n = 2) at 37 °C. At time points of 0, 30, 60, and 120 min, 15 µL of sample were taken out and the reactions terminated by adding 75 µL of ice-cold methanol. The reaction mixtures were then vortexed for 30 s and centrifuged at rcf 15,000 for 15 min. Following centrifugation, 3 μL of the supernatant was analyzed using UHPLC-Q Exactive Orbitrap MS. The percentage of test compound remaining at the individual time points relative to the 0-min sample was then determined.

[8] = Plasma stability assay, human plasma; assay type: in vitro ADME; details: 10 µM, 37 °C, after 2-h incubation
Description: as §4

renin = target: T1, renin (Homo sapiens, UniProt P00797); experiment: Renin assay; assay type: biochemical; details: best off-target inhibition observed; read-out: estimated Kiapp, renin
T1 construct: purchased BPS Bioscience 80211
T1 sequence (P00797 67-406): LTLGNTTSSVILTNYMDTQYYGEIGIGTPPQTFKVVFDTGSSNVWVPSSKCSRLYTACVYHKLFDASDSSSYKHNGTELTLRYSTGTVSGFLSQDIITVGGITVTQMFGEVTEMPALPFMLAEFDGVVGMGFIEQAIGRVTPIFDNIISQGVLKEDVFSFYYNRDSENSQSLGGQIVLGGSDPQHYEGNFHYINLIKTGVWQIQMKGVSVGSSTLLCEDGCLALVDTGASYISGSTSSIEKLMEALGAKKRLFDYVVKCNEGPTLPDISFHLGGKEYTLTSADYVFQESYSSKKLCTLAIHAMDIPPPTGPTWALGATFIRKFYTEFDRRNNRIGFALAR
Description: Renin assay: A kit from BPS Bioscience (80211) was used with adjustments to the manufacturer’s protocol as follows. The reaction was run at RT in black 96 half-area plates in a total reaction volume of 50 μL containing 0.01% Tween-20. Instead of measuring endpoints at 30 min the increase in fluorescence (Ex 490 nm, Em 520 nm) per second (RFU/s) was obtained from linear progress curves over 10 min. Fractional activities were calculated from reactions with no inhibitors. Aliskiren was used as a positive control.

HepG2 cells [9] = experiment: HepG2 cell uptake assay; assay type: in vitro ADME; details: 10 μM, 2 h, 37 °C
Description: as §2
The cells in 12-well plate were treated with CDD-1713 or CDD-1976 (final concentration: 10 μM). The plate was incubated at 37 °C for another 2 h. The medium in the plate was decanted and the cells were rinsed with 1 mL of 1× DPBS three times, then 0.5 mL of 0.25% trypsin was added to each well and incubated for 3.5 min (at 37 °C). One milliliter of complete medium was added to each well to quench the reaction. After spinning at 350 × g for 5 min, the cell pellet was reconstituted in MeOH/H2O (vol/vol 1/1) and CDD-1713 or CDD-1976 was extracted from 100 μL of the resulting mixture with 100 μL of ice-cold methanol. The mixtures were centrifuged at rcf 15,000 for 15 min. Three microliters of the supernatant was analyzed by UHPLC-Q Exactive Orbitrap MS (Thermo Fisher Scientific) equipped with a 50-mm × 4.6-mm column (XDB C-18; Agilent Technologies). The column temperature was set at 40 °C. Ultrapure nitrogen was applied as the sheath (45 arbitrary units), auxiliary (10 arbitrary units), sweep (1.0 arbitrary unit), and the collision gas. […]

[10] = Table S1, 25 nM enzyme, 15 µM fluorescent peptide, Morrison equation, SE from triplicates
[11] = read-out: Ki against M^pro (Fig. 2; Fig. 2B M^pro-His-tag), 25 nM enzyme, 15 µM fluorescent peptide, Morrison equation, inactive = less than 90% inhibition at 25 µM
[12] = read-out: Mpro-His Ki, Table S1, 25 nM enzyme, 15 µM fluorescent peptide, Morrison equation, SE from triplicates

COc1cc(-c2cccc3[nH]ncc23)cc(CO)c1OCC(=O)N(C)C [CDD-1776]
Mpro Ki (SARS-CoV-2 M^pro): Inactive
Mpro-His Ki (SARS-CoV-2 M^pro-His6; [10]): Inactive
M^pro inhibitory activity (in words) (SARS-CoV-2 M^pro-His6): completely abolished the activity

Cc1nnc2n1-c1ccc(Cl)cc1C(c1ccccc1)=NC2 [Alprazolam, reference compound]
half-life at 2 μM [1]: 832 min
half-life at 2 μM [2]: 296 min

COc1cc(-c2cccc3[nH]ncc23)ccc1OCC(=O)N(C)C [CDD-1793]
Mpro Ki (SARS-CoV-2 M^pro): Inactive
Mpro-His Ki (SARS-CoV-2 M^pro-His6; [10]): Inactive
M^pro inhibitory activity (in words) (SARS-CoV-2 M^pro-His6): completely abolished the activity

COc1cc(-c2cccc3[nH]ncc23)cc(C=O)c1OCC(=O)N(C)C [CDD-1713]
stabilization of M^pro (temperature shift) [3]: stabilized; also recorded: concentration-dependent stabilization
metabolic stability in human liver microsomes (in words) [1]: metabolically labile
half-life at 2 μM [1]: 15.3 min
cytotoxicity in HepG2 cells (in words) (HepG2 cells [4]): no obvious cytotoxicity
viability at 24 h, 100 µM [5]: > 80%
metabolic stability in mouse liver microsomes (in words) [2]: metabolically labile
half-life at 2 μM [2]: 8.4 min
effect on SARS-CoV-2 induced cell death (in words) [6]: reduced cell death in a dose-dependent manner
IC50, SARS-CoV-2 induced cell death (normalized cell index, RTCA) [6]: 5190 nM
compound remained in mouse plasma [7]: 80%
Ki (SARS-CoV-2 M^pro-His6; 25 nM enzyme, 15 µM fluorescent peptide, Morrison equation, inactive = less than 90% inhibition at 25 µM, read-out: Ki against M^pro (Fig. 2; Fig. 2B M^pro-His-tag)): 45 ± 3 nM
Ki (SARS-CoV-2 M^pro-His6; Table S1, 25 nM enzyme, 15 µM fluorescent peptide, Morrison equation, SE from triplicates, read-out: Mpro-His Ki): 45 ± 3 nM
Ki (SARS-CoV-2 M^pro-His6; read-out: Ki against M^pro (Fig. 2; Fig. 2B M^pro-His-tag)): 45 nM
compound remained in human plasma [8]: 80%
Ki (renin): 53000 nM
cell permeability in uptake assay of HepG2 cells (HepG2 cells [9]): moderate cell permeability

CCOC(=O)/C=C/c1cc(-c2cccc3[nH]ncc23)cc(OC)c1OCC(=O)N(C)C [CDD-1971]
Mpro Ki (SARS-CoV-2 M^pro): Inactive
Mpro-His Ki (SARS-CoV-2 M^pro-His6; [10]): Inactive

CN(C)C(=O)COc1ccc(-c2cccc3[nH]ncc23)cc1C=O [CDD-1976]
stabilization of M^pro (temperature shift) [3]: stabilized; also recorded: concentration-dependent stabilization; also recorded: most pronounced temperature shift
metabolic stability in human liver microsomes (in words) [1]: more stable
half-life at 2 μM [1]: 41.4 min
cytotoxicity in HepG2 cells (in words) (HepG2 cells [4]): no obvious cytotoxicity
IC50 (HepG2 cells [4]; Homo sapiens, HepG2, XTT assay, read-out: IC50, HepG2 cell viability): > 100000 nM
viability at 24 h, 100 µM ([5]; HepG2 cells): > 80%
metabolic stability in mouse liver microsomes (in words) [2]: more stable in human liver microsomes, but not mouse
half-life at 2 μM [2]: 10.2 min
effect on SARS-CoV-2 induced cell death (in words) [6]: reduced cell death in a dose-dependent manner
compound remained in mouse plasma [7]: 80%
Ki (SARS-CoV-2 M^pro-His6): 37 nM
M^pro inhibitory activity (in words) (SARS-CoV-2 M^pro-His6): better inhibition compared to CDD-1713
Ki (SARS-CoV-2 M^pro-His6; [11]): 37 ± 4 nM
Ki (SARS-CoV-2 M^pro-His6; [12]): 37 ± 4 nM
compound remained in human plasma [8]: 80%
cell permeability in uptake assay of HepG2 cells (HepG2 cells [9]): moderate cell permeability

COc1cc(-c2cccc3[nH]ncc23)cc(C=O)c1OCC(=O)N1CCC(Oc2cccc(C(=O)N(C)C)c2)C1 (stereo not shown) [CDD-1714]
stabilization of M^pro (temperature shift) [3]: stabilized; also recorded: concentration-dependent stabilization
Ki (SARS-CoV-2 M^pro; read-out: Mpro Ki): 24 ± 3 nM
Ki (SARS-CoV-2 M^pro-His6): 20 nM
Ki (SARS-CoV-2 M^pro-His6; [11]): 20 ± 3 nM
Ki (SARS-CoV-2 M^pro-His6; [12]): 20 ± 3 nM

COc1cc(-c2cccc3[nH]ncc23)cc(C(=O)CO)c1OCC(=O)N(C)C [CDD-1886]
Mpro Ki (SARS-CoV-2 M^pro): Inactive
Mpro-His Ki (SARS-CoV-2 M^pro-His6; [10]): Inactive

COc1cc(-c2cccc3[nH]ncc23)cc(C(C)=O)c1OCC(=O)N(C)C [CDD-1883]
Mpro Ki (SARS-CoV-2 M^pro): Inactive
Mpro-His Ki (SARS-CoV-2 M^pro-His6; [10]): Inactive

COc1cc(-c2cccc3c2cnn3C)cc(C=O)c1OCC(=O)N(C)C [CDD-1847]
effect on SARS-CoV-2 induced cell death (in words) [6]: unable to prevent cell death
IC50, SARS-CoV-2 induced cell death (normalized cell index, RTCA) [6]: inactive
Mpro Ki (SARS-CoV-2 M^pro): Inactive
Mpro-His Ki (SARS-CoV-2 M^pro-His6; [10]): Inactive
M^pro inhibitory activity (in words) (SARS-CoV-2 M^pro-His6): completely lost activity

CN(C)C(=O)COc1ccc(-c2cccc3[nH]ncc23)cc1C#N [CDD-2038]
Mpro Ki (SARS-CoV-2 M^pro): Inactive
Mpro-His Ki (SARS-CoV-2 M^pro-His6; [10]): Inactive
